Patent US10307389B2, “Succinate prodrugs for use in the treatment of lactic acidosis or drug-induced side-effects due to Complex I-related impairment of mitochondrial oxidative phosphorylation” (NEUROVIVE PHARMACEUTICAL AB, priority 2014, dated 2019)
“Also recorded” adds a separate entry of the source.

Columns and labels:
[1] = test system: cells with inhibited respiratory complex I; assay: Screening assay 1: enhancement of mitochondrial energy producing function in cells with inhibited respiratory complex I; format: cell-based, human; parameters: key: (+): Brackets [( )] indicate an intermediate effect, i.e. (+++) is between ++ and +++; graded either +, ++ or +++ in increasing order of potency; (++): Brackets [( )] indicate an intermediate effect, i.e. (+++) is between ++ and +++; graded either +, ++ or +++ in increasing order of potency; (+++) is between ++ and +++; graded either +, ++ or +++ in increasing order of potency; conditions: screening assay 1, complex I inhibited with rotenone 2 μM
Experimental: (§1) Measurement of mitochondrial respirationise performed in a high-resolution oxygraph (Oxygraph-2k, Oroboros Instruments, Innsbruck, Austria) at a constant temperature of 37° C. Isolated human platelets, white blood cells, fibroblasts, human heart muscle fibers or other cell types containing live mitochondria are suspended in a 2 mL glass chamber at a concentration sufficient to yield oxygen consumption in the medium of 10 pmol O2 s^−1 mL^−1.
Cells are placed in a buffer containing 110 mM sucrose, HEPES 20 mM, taurine 20 mM, K-lactobionate 60 mM, MgCl2 3 mM, KH2PO4 10 mM, EGTA 0.5 mM, BSA 1 g/l, pH 7.1. […] Compounds dissolved in DMSO are titrated in a range of 10 μM to 10 mM final concentration. Subsequently, cell membranes are permeabilised with digitonin (1 mg/1*10^6 plt) to allow entry of extracellularly released energy substrate or cell impermeable energy substrates. After stabilized respiration, Succinate 10 mM is added as a reference to enable respiration downstream of complex I. After the respiration stabilized the experiment is terminated by addition of Antimycin at final concentration 1 μg/mL and any residual non-mitochondrial oxygen consumption is measured. An increase in respiration rate in the described protocol is tightly coupled to ATP synthesis by oxidative phosphorylation unless cells are uncoupled (i.e. proton leak without production of ATP). Uncoupling is tested for by addition of the ATP synthase inhibitor oligomycin (1-2 μg mL^−1) in a protocol 3 where the extent of uncoupling corresponds to the respiratory rate following oligomycin addition.

intact cells [2] = assay: Screening assay 2: enhancement and inhibition of mitochondrial energy producing function in intact cells (FCCP); format: cell-based, human; parameters: key to Convergent (FCCP): increase in mitochondrial oxygen consumption: (+): Brackets [( )] indicate an intermediate effect, i.e. (+++) is between ++ and +++; graded either +, ++ or +++ in increasing order of potency; (++): Brackets [( )] indicate an intermediate effect, i.e. (+++) is between ++ and +++; graded either +, ++ or +++ in increasing order of potency; (+++) is between ++ and +++; graded either +, ++ or +++ in increasing order of potency
Experimental: as §1
In the second protocol the same buffer is used as described above. After basal respiration is established, the mitochondrial uncoupler FCCP is added at a concentration of 2 nM to increase metabolic demand.

intact cells [3] = assay: Screening assay 3: uncoupling in intact cells; for Uncoupling: level of oxygen consumption after addition of oligomycin: tested at 1000 µM; format: cell-based, human; parameters: key: (+): Brackets [( )] indicate an intermediate effect, i.e. (+++) is between ++ and +++; graded either +, ++ or +++ in increasing order of potency; (++): Brackets [( )] indicate an intermediate effect, i.e. (+++) is between ++ and +++; graded either +, ++ or +++ in increasing order of potency; (+++) is between ++ and +++; graded either +, ++ or +++ in increasing order of potency
Experimental: Measurement of mitochondrial respirationise performed in a high-resolution oxygraph (Oxygraph-2k, Oroboros Instruments, Innsbruck, Austria) at a constant temperature of 37° C. […] In the third protocol, the same buffer as described above is used. […] Subsequently, the ATP-synthase-inhibitor Oligomycin is added. A reduction in respiration is a measure of how much of the oxygen consumption that is coupled to ATP synthesis. No, or only a slight, reduction indicate that the compound is inducing a proton leak over the inner mitochondrial membrane. The uncoupler FCCP is then titrated to induce maximum uncoupled respiration. […] The experiment is terminated by the addition of 1 μg/mL of the complex III inhibitor Antimycin to measure non-mitochondrial oxygen consumption.

[4] = test system: intact human blood cells with inhibited complex I in human plasma; assay: Screening assay 4: cells with inhibited respiratory complex I in human plasma; format: cell-based; parameters: key: (+): Brackets [( )] indicate an intermediate effect, i.e. (+++) is between ++ and +++; graded either +, ++ or +++ in increasing order of potency; (++): Brackets [( )] indicate an intermediate effect, i.e. (+++) is between ++ and +++; graded either +, ++ or +++ in increasing order of potency; (+++) is between ++ and +++; graded either +, ++ or +++ in increasing order of potency; conditions: screening assay 4, complex I inhibited
Experimental: Measurement of mitochondrial respirationise performed in a high-resolution oxygraph (Oxygraph-2k, Oroboros Instruments, Innsbruck, Austria) at a constant temperature of 37° C. […] Intact human blood cells are incubated in plasma from the same donor. […] The experiment is terminated by addition of Antimycin at final concentration 1 μg/mL and any residual non-mitochondrial oxygen consumption is measured.

[5] = case report; cited from earlier work
[6] = test system: permeabilized human peripheral blood mononuclear cells (PBMCs); assay: High-resolution respirometry of permeabilized human PBMCs; conditions: PBMC, read-out: IC50 for inhibition of OXPHOSCI capacity
Experimental: Real-time respirometric measurements were performed using high-resolution oxygraphs (Oxygraph-2k, Oroboros Instruments, Innsbruck, Austria). The experimental conditions during the measurements were the following: 37° C., 2 mL active chamber volume and 750 rpm stirrer speed. […] For data recording, DatLab software version 4 and 5 were used (Oroboros Instruments, Innsbruck, Austria). Settings, daily calibration and instrumental background corrections were conducted according to the manufacturer's instructions. […] All measurements were performed at a platelet concentration of 200×10^6 cells per mL or a PBMC concentration of 5×10^6 cells per mL. […] Maximal uncoupled respiratory electron transport system capacity supported by convergent input through complex I and […] ) was evaluated by subsequent titration with the protonophore carbonylcyanide p-(trifluoromethoxy) phenylhydrazone (FCCP). […] Complex IV activity was calculated by subtracting the sodium azide value from the TMPD value. With exception of complex IV activity, all respiratory states were measured at steady-state and corrected for ROX. Complex IV activity was measured after ROX determination and not at steady-state.

intact human platelets [7] = assay: Intervention on rotenone- or metformin-induced lactate production with cell-permeable succinate prodrugs; format: cell-based; conditions: for effect on rotenone-induced lactate production: 2 μM rotenone, repeated additions of 250 μM; for effect on metformin-induced lactate production: 10 mM metformin, additions of 250 μM each 30 minutes
Experimental: (§2) Lactate levels are determined every 30 min using the Lactate Pro™ 2 blood lactate test meter (Arkray, Alere A B, Lidingö, Sweden) or similar types of measurements. Incubation is performed at 37° C. pH is measured at start, after 4 and after 8 h (or more frequently) of incubation using a Standard pH Meter, e.g. PHM210 (Radiometer, Copenhagen, Denmark). Drug candidates are added to the assay from start or following 30-60 min at concentrations within the range 10 μM-5 mM. […] In order to evaluate the specificity of the drug candidate, it is also tested in combination with a down-stream inhibitor of respiration such as the complex III inhibitor Antimycin at 1 μg/mL, which should abolish the effect of the drug candidate and restore the production of lactate.
Lactate levels were measured in intervals of 30 min with the onset of the experiment.

[8] = test system: permeabilized human platelets; assay: cells
Experimental: Lactate production of intact human platelets was determined in PBS containing 10 mM glucose.
Subsequently the FADH2-linked substrate succinate (10 mM) was given to determine convergent complex I- and II-dependent OXPHOS capacity (OXPHOSCI+II). […] Finally, the artificial complex IV substrate N,N,N′,N′-tetramethyl-p-phenylenediamine dihydrochloride (TMPD, 0.5 mM) was added and the complex IV inhibitor sodium azide (10 mM) was given to measure complex IV activity and chemical background, respectively.

intact human platelets [9] = assay: Lactate production and pH of intact human platelets; format: cell-based; conditions: 8 h; metformin 1 and 10 mM, phenformin 0.5 mM, rotenone 2 μM
Experimental: as §2
Incubation was performed at 37° C. at a stirrer speed of 750 rpm, and pH was measured at start, after 4 and after 8 h of incubation (n=4) using a PHM210 Standard pH Meter (Radiometer, Copenhagen, Denmark).

[10] = patients; cited from earlier work

CCC(=O)N[C@@H](CSC(=O)CCC(=O)SC[C@H](NC(=O)CC)C(=O)OC)C(=O)OC [Compound 01-205, (R)-methyl 3-(4-((R)-3-methoxy-3-oxo-2-propionamidopropylthio)-4-oxobutanoylthio)-2-propionamidopropanoate]
CII: increase in mitochondrial oxygen consumption [1]: ++
Toxicity: lowest concentration during compound titration at which a decrease in oxygen consumption is seen (intact cells [2]; screening assay 2): 5 mM
Convergent (FCCP): increase in mitochondrial oxygen consumption (intact cells [2]; screening assay 2, uncoupled conditions): ++
Uncoupling: level of oxygen consumption after addition of oligomycin (intact cells [3]; screening assay 3): (+)
Convergent (Routine): increase in mitochondrial oxygen consumption (intact cells [3]; screening assay 3, 1 mM compound): +++
CII (plasma): increase in mitochondrial oxygen consumption [4]: +

CN(C)C(=N)N=C(N)N [Metformin]
serum level in involuntary intoxication, prior to hemodialysis [5]: over 2 mM
IC50 [6]: 450 µM

CC(=O)OC(C)OC(=O)CCC(=O)OC(C)OC(C)=O (stereo not drawn) [NV189, Succinic acid bis-(1-acetoxy-ethyl) ester]
effect on rotenone-induced lactate production (intact human platelets [7]): attenuated; also recorded: brought back to normal
effect on metformin-induced lactate production (intact human platelets [7]): significantly decreased

CC(=O)OCOC(=O)CCC(=O)OC(C)OC(C)=O (stereo not drawn) [NV241, Succinic acid 1-acetoxy-ethyl ester acetoxymethyl ester]
effect on rotenone-induced lactate production (intact human platelets [7]): attenuated
effect on metformin-induced lactate production (intact human platelets [7]): significantly decreased

[H]/N=C(/N)N/C(=N/[H])NCCc1ccccc1 [Phenformin]
IC50 ([8]; Homo sapiens, Platelet, 10 min, read-out: IC50 for inhibition of OXPHOSCI capacity): 58 µM
ETSCII capacity and complex IV activity ([8]; permeabilized platelets, compared to controls): not ETSCII or respiration specific to complex IV
potency of OXPHOSCI inhibition relative to metformin ([8]; permeabilized platelets, phenformin vs metformin): 20 fold
lactate production compared to control (intact human platelets [9]): significantly more lactate
incidence of lactic acidosis [10]: 4 cases per 10000 treatment-years

succinate [reference compound]
effect on metformin-induced lactate production (intact human platelets [7]): did not change this; also recorded: did not reduce
